Results taken from patent US8664276B2, “Stilbene analogs and methods of treating cancer” (University of Kentucky Research Foundation, priority 2011, dated 2014).
Entries after “also recorded” stand apart in the source; their conditions may differ.

Key:
Type in all cases: cell-based
[1] = system: Wnt target genes, Axin2 and c-Myc; assay: Western blot of Wnt target proteins in LS174 CRC cells
Description: Western blot. Western blots were performed using the following antibodies: β-catenin (Sigma, C2206), c-Myc (Epitomics, 1472-1), Axin2 (Cell Signaling, 2151), β-Actin (Sigma, A1978), TCF4 (Epitomics, 2114-1) and pygopus2 (Santa Cruz, sc-74878), Cyclin D1 (Cell signaling, 2926).
(§1) Cyclin B1 levels were decreased, whereas p21^WAF1/CIP1 levels increased, consistent with the fact that p21^WAF1/CIP1 expression is repressed by c-Myc. β-catenin levels were not affected by resveratrol. Next, the mRNA levels of β-catenin target genes were analyzed using RT-PCR. Expression of survivin, Lgr5, CD44, and c-Myc were decreased in resveratrol-treated cells.
A panel of stilbene analogs was designed and synthesized (FIGS. 2, 3, 5A and 6A). […] However, the solubility of 4d was poor and it was not effective below 10 μM concentrations (data not shown). To improve its solubility and activity, compound 4d was modified with 2′-fluoro 4e, 3′-fluoro 4f and 4′-fluoro 4g substituents (FIG. 5D). Both compounds 4e and 4f had good activity at 10 μM, (E)-4-(2-fluorostyryl)-N,N-dimethylaniline.
Western blot and cell proliferation assay. The activity of fluorinated N,N-dialkylaminostilbenes (FIDAS or FIDAS agents) on Wnt signaling activity in cancer cells were analyzed by Western blot with antibodies against Wnt target genes, such as c-Myc, Axin2. The effects of FlDAS agents on cancer cell growth were analyzed using Cell Viability Analyzer (Beckman Coulter, Vi-Cell XR). These assays have been described previously (see Zhang et al., J. of Med. Chem. 54, 1288-1297 (2011)).

[2] = system: β-catenin target genes; assay: RT-PCR of β-catenin target genes in LS174 cells; settings: RT-PCR
Description: RT-PCR. LS174 cells were treated with DMSO or Wnt inhibitors. After 36 h, RNA was isolated using the RNeasy kit (Qiagen). RT-PCR was performed as described in Zhang et al., Mol Cell Biol 2006, 26, 2055-2064. The following primers were used: β-actin: 5′-CAACCGCGAGAAGATGAC-3′ (SEQ ID NO:01), 5′-AGGAAGGCTGGAAGAGTG-3′ (SEQ ID NO:02); surivivin: 5′-[…]-3′ (SEQ ID NO:03), 5′-[…]-3′ (SEQ ID NO:04); c-Myc: 5′-TGGGCTGTGAGGAGGTTTG-3′ (SEQ ID NO:05), 5′-TATGTGGAGCGGCTTCTCG-3′ (SEQ ID NO:06); Axin2: 5′-[…]-3′ (SEQ ID NO:07), 5′-[…]-3′ (SEQ ID NO:08); TCF4: 5′-[…]-3′ (SEQ ID NO:09), 5′-[…]-3′ (SEQ ID NO:10); pygopus2: 5′-GGCCGGTCTGCAAATGAAG-3′ (SEQ ID NO:11), 5′-TCCACCTCCAGTGCTGTAG-3′ (SEQ ID NO:12); Lgr5: 5′-[…]-3′ (SEQ ID NO:13), 5′-[…]-3′ (SEQ ID NO:14); CD44: 5′-[…]-3′ (SEQ ID NO:15), 5′-[…]-3′ (SEQ ID NO:16); Ki67: 5′-[…]-3′ (SEQ ID NO:17), 5′-[…]-3′ (SEQ ID NO:18).
as §1

[3] = system: β-catenin; assay: β-catenin localization by immunofluorescence in LS174 cells; settings: 10 μM, 24 h, versus DMSO
Description: Immunofluorescence. Cells grown on cover glass were fixed by 4% paraformaldehyde for 20 min at room temperature. The cells were permeabilized with PBS containing 0.3% (w/v) Triton X-100 and blocked by 5% normal goat serum in PBS for 30 min. Anti-β-catenin antibody (1:300, Sigma, St. Louis, Mo.) was diluted in blocking solution and incubated with cells overnight. The cells were washed 3 times with PBS and further incubated with Alexa-488-labeled anti-rabbit IgG (1:500) diluted in PBS for 40 min. The cover glasses were washed, mounted on glass slides, viewed and photographed with an Olympus FW1000 confocal microscope. Cells grown on cover glass were treated with fluorescent compounds for 2 h, 6 h, 12 h and 24 h respectively. Treated cells were fixed by 4% paraformaldehyde for 20 min at room temperature. Then cells were washed 3 times with PBS and mounted on glass slides, viewed under the fluorescence of 405 nm-wavelength and photographed with an Olympus FW1000 confocal microscope.
Nevertheless, compound 4s lends itself well to a mechanistic study of the site of action of these compounds. LS174 cells were treated with 10 μM of compound 4s for 2 h, 6 h, 12 h, and 24 h. The cells were fixed and analyzed by confocal fluorescence microscopy. […] The cells were fixed and β-catenin localization analyzed by immunofluorescence. […]

CN(C)c1ccc(/C=C/c2c(F)cccc2F)cc1 [4r, (E)-4-(2,6-Difluorostyryl)-N,N-dimethylaniline]
repression of Wnt target genes at 10 μM ([1]; 10 μM, CRC cells): repress Wnt target genes; also recorded: reduced the protein levels | Wnt inhibitory activity in Western blot, qualitative or relative to a comparator ([1]; CRC cells): more active than compound 4e; also recorded: best activity | protein levels of TCF4 and pygopus2 ([1]; CRC cells): reduced | inhibition of Wnt target genes at 2.5 μM ([1]; LS174 CRC cells, 2.5 μM): significantly inhibited | transcription of TCF4 genes [2]: inhibited | transcription of Wnt target genes [2]: strongly inhibited | transcription of pygopus2 genes [2]: no significant effects | nuclear β-catenin levels [3]: decreased
